Test results as given in article PMC5761213 (Journal of Pharmaceutical Analysis, 2014).
Like-named read-outs stand apart in the source and are kept apart here.

Columns and labels:
[1] = molecular target: T1, CYP1A2 (Homo sapiens, UniProt P05177); test: Effect of DMSO on CYP activity in human liver microsomes; type: in vitro ADME
T1 sequence (P05177 1-516): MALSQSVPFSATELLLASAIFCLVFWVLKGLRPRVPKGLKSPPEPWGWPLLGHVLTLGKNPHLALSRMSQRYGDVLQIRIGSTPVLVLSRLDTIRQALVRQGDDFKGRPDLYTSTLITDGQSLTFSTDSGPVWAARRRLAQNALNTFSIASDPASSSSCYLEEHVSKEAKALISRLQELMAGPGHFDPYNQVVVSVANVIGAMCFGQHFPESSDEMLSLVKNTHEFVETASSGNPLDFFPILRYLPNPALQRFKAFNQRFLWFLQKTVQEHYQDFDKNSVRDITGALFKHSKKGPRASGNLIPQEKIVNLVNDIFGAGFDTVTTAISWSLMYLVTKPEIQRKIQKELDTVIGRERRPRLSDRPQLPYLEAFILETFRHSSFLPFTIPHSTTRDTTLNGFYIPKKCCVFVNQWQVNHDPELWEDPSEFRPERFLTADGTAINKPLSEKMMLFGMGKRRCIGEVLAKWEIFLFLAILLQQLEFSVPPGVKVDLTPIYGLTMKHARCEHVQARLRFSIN

[2] = molecular target: T2, CYP2C8 (Homo sapiens, UniProt P10632); test: as above; type: in vitro ADME
T2 sequence (P10632 1-490): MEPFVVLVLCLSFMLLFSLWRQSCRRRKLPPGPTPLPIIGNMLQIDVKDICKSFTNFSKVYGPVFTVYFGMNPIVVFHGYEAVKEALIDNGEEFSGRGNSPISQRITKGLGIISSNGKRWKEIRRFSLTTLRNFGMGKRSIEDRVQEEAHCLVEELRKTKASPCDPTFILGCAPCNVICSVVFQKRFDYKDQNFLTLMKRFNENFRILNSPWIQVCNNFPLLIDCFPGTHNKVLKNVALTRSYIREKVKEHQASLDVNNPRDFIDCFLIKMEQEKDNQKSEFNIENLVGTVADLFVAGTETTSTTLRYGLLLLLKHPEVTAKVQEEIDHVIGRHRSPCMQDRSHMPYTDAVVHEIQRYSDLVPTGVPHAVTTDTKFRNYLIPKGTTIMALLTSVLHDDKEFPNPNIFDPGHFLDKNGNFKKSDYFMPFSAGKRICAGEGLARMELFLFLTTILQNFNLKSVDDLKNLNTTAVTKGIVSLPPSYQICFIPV

[3] = molecular target: T3, CYP2C19 (Homo sapiens, UniProt P33261); test: as above; type: in vitro ADME; conditions: for activity loss: percent decrease of metabolite formation
[4] = molecular target: CYP2D6 (Homo sapiens, UniProt P10635); test: as above; type: in vitro ADME
[5] = molecular target: CYP3A4 (Homo sapiens, UniProt P08684); test: as above; type: in vitro ADME; conditions: for activity loss: percent decrease of metabolite formation
[6] = molecular target: T3, CYP2C19; test: CYP inhibition assay in human liver microsomes, S-mephenytoin probe; type: in vitro ADME; conditions: IC50 calculated without SC, Single, pooled human liver microsomes, analyte-to-IS peak area ratio
[7] = molecular target: T3, CYP2C19; conditions: literature value, cited from earlier work
[8] = 0.5% DMSO, concentration set for the cocktail assay

Sequence of CYP2D6 (P10635 whole entry): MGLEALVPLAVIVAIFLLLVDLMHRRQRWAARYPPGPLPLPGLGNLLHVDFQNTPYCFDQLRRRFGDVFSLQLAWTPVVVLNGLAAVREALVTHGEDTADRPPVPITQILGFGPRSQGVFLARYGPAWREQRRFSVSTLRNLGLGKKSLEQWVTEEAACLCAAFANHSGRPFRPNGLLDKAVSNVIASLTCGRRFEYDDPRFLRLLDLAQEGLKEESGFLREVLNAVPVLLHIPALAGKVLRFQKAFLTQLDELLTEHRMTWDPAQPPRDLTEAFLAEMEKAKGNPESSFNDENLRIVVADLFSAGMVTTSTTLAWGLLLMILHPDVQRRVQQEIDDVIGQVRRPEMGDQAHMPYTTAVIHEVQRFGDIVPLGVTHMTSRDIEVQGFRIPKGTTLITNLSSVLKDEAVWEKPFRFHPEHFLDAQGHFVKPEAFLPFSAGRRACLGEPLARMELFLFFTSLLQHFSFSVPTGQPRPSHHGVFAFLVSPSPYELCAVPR
T3 sequence (P33261 whole entry): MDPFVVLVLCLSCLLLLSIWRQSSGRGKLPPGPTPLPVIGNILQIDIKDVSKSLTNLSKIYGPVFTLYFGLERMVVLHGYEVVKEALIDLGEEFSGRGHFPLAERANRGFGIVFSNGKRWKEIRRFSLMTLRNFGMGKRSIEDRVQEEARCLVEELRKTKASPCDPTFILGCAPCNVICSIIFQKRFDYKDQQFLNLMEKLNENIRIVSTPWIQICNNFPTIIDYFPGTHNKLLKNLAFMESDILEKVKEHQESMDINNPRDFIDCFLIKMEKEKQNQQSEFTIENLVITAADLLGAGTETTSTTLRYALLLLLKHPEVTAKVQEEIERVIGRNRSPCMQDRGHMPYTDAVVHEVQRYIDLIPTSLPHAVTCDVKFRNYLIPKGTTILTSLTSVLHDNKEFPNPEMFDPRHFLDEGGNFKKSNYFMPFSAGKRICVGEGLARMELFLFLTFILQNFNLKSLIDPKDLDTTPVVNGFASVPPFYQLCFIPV
Sequence of CYP3A4 (P08684 whole entry): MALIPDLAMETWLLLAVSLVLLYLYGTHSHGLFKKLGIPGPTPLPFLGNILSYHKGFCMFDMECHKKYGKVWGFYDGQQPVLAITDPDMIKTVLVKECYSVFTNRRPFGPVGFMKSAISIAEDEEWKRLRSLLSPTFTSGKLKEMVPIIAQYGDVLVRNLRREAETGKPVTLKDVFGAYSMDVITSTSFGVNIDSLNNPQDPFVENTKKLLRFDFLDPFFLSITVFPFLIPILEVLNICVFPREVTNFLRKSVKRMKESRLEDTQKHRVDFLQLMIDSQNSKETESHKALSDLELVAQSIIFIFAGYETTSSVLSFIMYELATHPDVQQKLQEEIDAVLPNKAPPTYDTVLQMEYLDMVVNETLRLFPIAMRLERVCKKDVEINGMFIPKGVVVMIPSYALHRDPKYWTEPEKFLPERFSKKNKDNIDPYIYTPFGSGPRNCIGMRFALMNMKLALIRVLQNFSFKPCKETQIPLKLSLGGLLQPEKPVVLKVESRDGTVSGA

C[S+](C)[O-] [DMSO]
reduction of metabolite formation ([1]; 0.1% DMSO): no significant reduction | CYP activity reduced by [1, 8]: 8% | effect of DMSO on CYP activity ([1]; DMSO up to 1%): not significantly affected | reduction of metabolite formation ([2]; 0.1% DMSO): no significant reduction | CYP activity reduced by [2, 8]: 11% | effect of DMSO on CYP activity ([2]; DMSO up to 1%): not significantly affected | reduction of metabolite formation ([3]; 0.1% DMSO): no significant reduction | activity loss ([3]; 0.5% DMSO (v/v)): 44.8% | CYP activity reduced by [3, 8]: 44% | activity loss ([3]; 1% DMSO (v/v)): 55.0% | reduction of metabolite formation ([4]; 0.1% DMSO): no significant reduction | CYP activity reduced by [4, 8]: 12% | activity loss ([4]; 1% DMSO (v/v), percent decrease of metabolite formation): 27.8% | reduction of metabolite formation ([5]; 0.1% DMSO): no significant reduction | activity loss ([5]; 0.5% DMSO (v/v)): 24.4% | activity loss ([5]; 1% DMSO (v/v)): 52.7%

C=C(C)[C@@H]1CCC2=CC(=O)C[C@@H](C)[C@]2(C)C1 [Nootkatone]
IC50 [6]: 7.19 µM | IC50 ([7]; read-out: reported IC50): 9.56 µM | Ki ([7]; read-out: reported Ki): 0.5 µM
